In ChEMBL document CHEMBL6177918, “Generation and capture of naphthoquinonynes: a new frontier in the development of trypanocidal quinones via aryne chemistry” (RSC Med Chem, 2025):

system: Trypanosoma cruzi; assay: Trypanocidal activity against Trypanosoma cruzi trypomastigotes incubated for 24 hrs; format: functional, organism-based

Row | SMILES | IC50 [µM]
1 | CCOC(=O)/C=C/c1cccc2c1C(=O)C=CC2=O | 90.5
2 | O=C1C=CC(=O)c2c([Se]c3ccccc3)cccc21 | 14.4
3 | O=C1C=CC(=O)c2c1cccc2-n1cc(-c2ccccc2)nn1 | 86.7
4 | O=C(Cn1ccnc1[N+](=O)[O-])NCc1ccccc1 [BENZNIDAZOLE] | 6.8
5 | O=C1C=CC(=O)c2c(O)cccc21 [JUGLONE] | 105

system: Trypanosoma cruzi; assay: Trypanocidal activity against bloodstream Trypanosoma cruzi trypomastigotes incubated for 24 hrs by light microscopy; format: functional, organism-based

Row | SMILES | IC50 [µM]
6 | CC12C=CC(C)(O1)c1cc3c(cc12)C(=O)C=CC3=O | 40
7 | O=C1C=CC(=O)c2cc(N(c3ccccc3)c3ccccc3)ccc21 | 134
8 | Cc1ccc(-c2cc3c(cc2O)C(=O)C=CC3=O)cn1 | 24.2
9 | Cc1ccncc1-c1cc2c(cc1O)C(=O)C=CC2=O | 181
10 | CC(C)=C1C2C=CC1c1cc3c(cc12)C(=O)C=CC3=O | > 800
11 | O=C1C=CC(=O)c2cc3c(cc21)C1C=CC3O1 | 10.1
12 | O=C1C=CC(=O)c2cc(-c3cccc(-c4ccccc4)n3)c(O)cc21 | 30.1
13 | COc1ccc(OC)c2cc(O)ccc12 | 379
14 | CCN(CC)c1ccc2c(c1)C(=O)C=CC2=O | 96.2
15 | O=C1C=CC(=O)c2cc(Nc3cccc4ccccc34)ccc21 | 186
16 | CCN(CC)C(=O)Oc1ccc2c(OC)ccc(OC)c2c1 | > 800
17 | O=C1C=CC(=O)c2cc(N(Cc3ccccc3)Cc3ccccc3)ccc21 | > 400
18 | CC(C)N(c1ccc2c(c1)C(=O)C=CC2=O)C(C)C | 18
19 | C=CCN(CC=C)c1ccc2c(c1)C(=O)C=CC2=O | 111
20 | CCC12C=CC(O1)c1cc3c(cc12)C(=O)C=CC3=O (stereo not drawn) | 48.8
21 | O=C1C=CC(=O)c2cc(OCCCCOc3ccccc3)ccc21 | 362
22 | COc1ccc(OC)c2ccccc12 | > 500
23 | Cc1ccc(Nc2ccc3c(c2)C(=O)C=CC3=O)cc1 | 138
24 | O=C1C=CC(=O)c2cc(-c3cnc4ccccc4c3)c(O)cc21 | 46.6
25 | O=C1C=CC(=O)c2cc(-n3cccn3)ccc21 | 74.4
26 | O=C1C=CC(=O)c2cc(Nc3ccccc3)ccc21 | 39.2
27 | O=C1C=CC(=O)c2cc(N(C3CCCCC3)C3CCCCC3)ccc21 | 54.2
28 | CC(=O)C12C=CC(O1)c1cc3c(cc12)C(=O)C=CC3=O (stereo not drawn) | 64.4
29 | COc1ccc(OC)c2cc([Si](C)(C)C)c(O)cc12 | 69.3
30 | COCC12C=CC(O1)c1cc3c(cc12)C(=O)C=CC3=O (stereo not drawn) | 58.1
31 | O=C1C=CC(=O)c2cc(-c3ccc(-c4ccccc4)nc3)c(O)cc21 | 10.5
32 | CN(c1ccccc1)c1ccc2c(c1)C(=O)C=CC2=O | 29.5
33 | CC(=O)OCC12C=CC(O1)c1cc3c(cc12)C(=O)C=CC3=O (stereo not drawn) | 27.3
34 | N#Cc1ccc(Nc2ccc3c(c2)C(=O)C=CC3=O)cc1 | 94.8
35 | O=C(Cn1ccnc1[N+](=O)[O-])NCc1ccccc1 [BENZNIDAZOLE] | 108

system: not listed separately; assay: Solubility of compound; format: physicochemical

Row | solubility | SMILES
36 | Insoluble | O=C1C=CC(=O)c2cc(-c3cccnc3)c(O)cc21
37 | Insoluble | COc1ccc(OC)c2cc([Si](C)(C)C)c(OS(=O)(=O)C(F)(F)C(F)(F)C(F)(F)C(F)(F)F)cc12

system: not listed separately; assay: Stability of compound; format: physicochemical

Row | Stability | SMILES
38 | Unstable | C[Si](C)(C)c1cc2c(cc1OS(=O)(=O)C(F)(F)C(F)(F)C(F)(F)C(F)(F)F)C(=O)C=CC2=O
